Laboratory results taken from patent US4073935A, “Substituted propanol-(2)-derivatives and their nicotinic acid esters, and process for their preparation, and the use thereof as hypolipemic drugs” (Klinge Pharma GmbH & Co., priority 1974, dated 1978).
Read-outs that look alike come from different tables or passages of the source.

Assays:
[1] = Oral tolerance (acute toxicity, LD50); conditions: mouse, in vivo, mice, 8th day after treatment, Litchfield-Wilcoxon
Method: After oral administration of the test compounds to mice of strain NMR-I, weight 15-20 g, the acute toxicity was determined. LD50 values were calculated following Litchfield-Wilcoxon (J. Pharmak. Exp. Therap. 96, 99, 1949) and pertain to the 8th day after treatment.

serum lipids = assay: Lipid-lowering action in normolipemic rats; assay type: in vivo; conditions: Rattus norvegicus, 72 h, 4 × 100 mg/kg oral over 3 days, male Wistar rats, vs controls, X ± Sx
Method: Lipid-lowering action was tested on groups of 10 male Wistar rats (Ivanovas-Kisslegg), weight 200-220 g, normolipemic, or ordinary ration ("ssniff" complete feed).
The test compounds were taken up in an aqueous solution of 0.25% agar and 0.85% NaCl and administered orally. After administration of 4 × 100 mg/kg over a period of 3 days, the animals were bled by cardiac puncture after privation of […] for 4 hours.^1
^1 H. Enomoto and R. Zschocke, 3rd Int. Symp. Atheroscler, Berlin 1973, Abstr. 238.
Serum lipids were determined with a Technicon autoanalyzer. Total cholesterol (TC) was tested by the Liebermann-Burchard reaction. Quantitative analysis for triglycerides (TG) was performed by Eggstein and Kreutz's enzyme method (Klin. Wschr. 44, 262, 1966), modified for autoanalyzer.
Lipid lowering effect is expressed as percent lowering of total cholesterol and triglycerides compared to controls.

[2] = read-out: % Lowering TC (total cholesterol)
[3] = read-out: % Lowering TG (triglycerides)

Structure (SMILES) | LD50 at 192 h [1] [mg/kg] | inhibition in vivo at 100 mg/kg (serum lipids; [2]) [%] | inhibition in vivo at 100 mg/kg (serum lipids; [3]) [%]
CCOC(=O)C(C)(C)Oc1ccc(Cl)cc1 [clofibrate, 2-(4'-chlorophenoxy)-2-methylpropionic acid ethyl ester, reference compound] | 1900 | 37.4 ± 13.6 | 50.4 ± 20
COC(=O)c1ccc(OCC(O)CSc2ccc(Cl)cc2)cc1 (stereo not shown) [Compound 38] |  | 12.3 ± 14.6 | 53 ± 17.6
COC(=O)C=Cc1ccc(OCC(O)COc2ccc(Cl)cc2)cc1 (stereo not shown) [Compound 8, 3-(4'-(2-methoxycarbonylvinyl)-phenoxy)-1-(4'-chlorophenoxy)-propanol-(2)] |  | 17.3 ± 26 | 52.1 ± 7.7
